# Measured values from the supplement of paper PMC5722580.
# Key:
# [1] = tested on: HEK293-SIE STAT3 Y640F; assay: drug sensitivity score (inhibition of STAT3 luciferase reporter); higher = stronger inhibition; conditions: 6 h; IL6 0 ng/ml
# Description: (§1)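 HEK293 cells with a STAT3-inducible (SIE) luciferase reporter, stably expressing WT STAT3 (IL6 100 ng/ml) or Y640F STAT3 (no IL6), were incubated 6 h with drugs in 384-well plates (5-8 concentrations over a 10,000-fold range); luciferase was read with ONE-Glo. DSS is a normalised area under the dose-response curve; values are the mean of two experiments.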
# [2] = tested on: HEK293-SIE STAT3 WT; assay: as above; conditions: 6 h; STAT3: WT; IL6 100 ng/ml
# Description: as §1
# [3] = tested on: KAI3; assay: drug sensitivity score (viability inhibition); higher = more sensitive; conditions: 72 h; IL2 2.5 ng/ml
# Description: (§2)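 NK-cell leukemia/lymphoma cell lines (3,000 cells/well) were cultured with IL2 2.5 ng/ml in 384-well drug plates (5-8 concentrations over a 10,000-fold range) for 72 h at 37 C; viability was read with CellTiter-Glo. DSS is a normalised area under the dose-response curve; the experiment was repeated twice.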
# [4] = tested on: NK-92; assay: as above; conditions: 72 h; IL2 2.5 ng/ml
# Description: as §2
# [5] = tested on: NKL; assay: as above; conditions: 72 h; IL2 2.5 ng/ml
# Description: as §2
# [6] = tested on: SNK6; assay: as above; conditions: 72 h; IL2 2.5 ng/ml
# Description: as §2
# [7] = tested on: KHYG-1; assay: as above; conditions: 72 h; IL2 2.5 ng/ml
# Description: as §2
# [8] = tested on: YT; assay: as above; conditions: 72 h; IL2 2.5 ng/ml
# Description: as §2
# [9] = tested on: NK-YS; assay: as above; conditions: 72 h; IL2 2.5 ng/ml
# Description: as §2
Structure (SMILES),drug sensitivity score [1] [DSS],drug sensitivity score [2] [DSS],drug sensitivity score [3] [DSS],drug sensitivity score [4] [DSS],drug sensitivity score [5] [DSS],drug sensitivity score [6] [DSS],drug sensitivity score [7] [DSS],drug sensitivity score [8] [DSS],drug sensitivity score [9] [DSS]
COc1cc(Nc2ncc(F)c(Nc3ccc4c(n3)NC(=O)C(C)(C)O4)n2)cc(OC)c1OC [Tamatinib],0,8.6,10.5,5.27,7.75,6.98,8.19,2.87,2.57
Cc1[nH]c2ccccc2c1CCNCc1ccc(/C=C/C(=O)NO)cc1 [Panobinostat],4.7,3.75,21.9,21.8,24.2,21.9,23.1,18.8,23
O=C(Cc1ccc(-c2ccc(OCCN3CCOCC3)cc2)cn1)NCc1ccccc1 [KX2-391],0,0,22.4,32.4,31.2,31.7,31.6,31.7,28.1
CC(=O)OC[C@H]1O[C@@H]([S-])[C@H](OC(C)=O)[C@@H](OC(C)=O)[C@@H]1OC(C)=O.CCP(CC)CC.[Au+] [Auranofin],2.05,5.9,2.72,4.86,8.44,8.28,5.84,8.63,8.08
CC1(C)CCC(CN2CCN(c3ccc(C(=O)NS(=O)(=O)c4ccc(NCC5CCOCC5)c([N+](=O)[O-])c4)c(Oc4cnc5[nH]ccc5c4)c3)CC2)=C(c2ccc(Cl)cc2)C1 [Venetoclax],1.5,0.9,29.2,3.59,11.9,24.9,9.65,11.6,10.3
CN1CC[C@H](c2c(O)cc(O)c3c(=O)cc(-c4ccccc4Cl)oc23)[C@H](O)C1 [Alvocidib],26.5,29.5,24.1,22.6,21.4,13.2,21.8,23,22.5
NS(=O)(=O)c1cccc2c1C(=O)c1cccc(O)c1C2=O [LLL12],12.4,17.1,18.9,23.1,24.9,28,22.9,18.2,15
N#CCNC(=O)c1ccc(-c2ccnc(Nc3ccc(N4CCOCC4)cc3)n2)cc1 [Momelotinib],12.4,24.2,13.9,10.1,15.9,8.25,18.9,8.12,10.8
C[C@@H]1C[C@H]2[C@@H]3CCC4=CC(=O)C=C[C@]4(C)[C@@]3(F)[C@@H](O)C[C@]2(C)[C@@]1(O)C(=O)CO [Dexamethasone],2.6,1.8,1.14,0,24.6,0,15.6,9.73,3.83
COc1ccc(-c2cc3c(C)nc(N)nc3n([C@H]3CC[C@H](OCCO)CC3)c2=O)cn1,9.1,14.9,9.49,19.2,15.4,5.96,13.9,16.1,15
CN1CCN(CCOc2cc(OC3CCOCC3)c3c(Nc4c(Cl)ccc5c4OCO5)ncnc3c2)CC1 [Saracatinib],1.9,0,2.15,3.28,1.25,0.135,2.88,2.46,2.03
COc1cc2c(cc1-c1c(C)noc1C)ncc1[nH]c(=O)n([C@H](C)c3ccccn3)c12 [I-BET151],4.4,11.5,4.86,1.34,8.89,11.6,13.3,7.05,12.2
C[C@@H]1CCN(C(=O)CC#N)C[C@@H]1N(C)c1ncnc2[nH]ccc12 [Tofacitinib],9.05,26,17.4,13.2,19.8,15.5,23.4,8.43,12.3
O=P1(N(CCCl)CCCl)NCCCO1 (stereo unspecified) [Cyclophosphamide],1.17,2.6,1.89,0,0,0.54,0,0,0.435
CN[C@@H]1C[C@H]2O[C@@](C)([C@@H]1OC)n1c3ccccc3c3c4c(c5c6ccccc6n2c5c31)C(=O)N[C@H]4O [UCN-01],20.3,22.9,29.8,27.3,26.9,30.1,30.7,20.5,28.7
O=C(NC[C@H](O)CO)c1ccncc1Nc1ccc(I)cc1F [Pimasertib],2.03,3.4,4.56,0,11,0.301,15.8,0.0567,2.47
C[C@@H]1C=C2C(=O)O[C@@H]3CC[C@H](C1)[C@]23O [Galiellalactone],0,0,5,3.98,1.09,6.92,4.09,1.84,3.55
CC(C)NC[C@@H](C(=O)N1CCN(c2ncnc3c2[C@H](C)C[C@H]3O)CC1)c1ccc(Cl)cc1 [GDC-0068],0.85,4.1,0,0.75,1.24,1.47,3.15,0.319,1.41
CN(C)C[C@@H]1CCn2cc(c3ccccc32)C2=C(C(=O)NC2=O)c2cn(c3ccccc23)CCO1 [Ruboxistaurin],0.3,3.95,4.46,4.64,7.79,4.54,9.45,4.62,8.41
C[C@]12O[C@H](C[C@]1(O)CO)n1c3ccccc3c3c4c(c5c6ccccc6n2c5c31)CNC4=O [Lestaurtinib],10.8,20.7,18.3,14.3,14.6,13,22,13.5,12.4
CS(=O)(=O)N1CCN(Cc2cc3nc(-c4cccc5[nH]ncc45)nc(N4CCOCC4)c3s2)CC1 [Pictilisib],5,4.5,2.33,7.68,6.67,1.94,3.56,5.04,6.48
Cc1cc(Nc2cc(CN3CCOCC3)c3nc(C)c(Cc4ccc(Cl)cc4F)n3n2)n[nH]1 [Gandotinib],8.4,24,,,,,,,
